Assay results as given in US20240390513A1, “PHARMACEUTICAL COMPOSITION FOR TREATING INFLAMMATORY DISEASES” (INDUSTRY FOUNDATION OF CHONNAM NATIONAL UNIVERSITY, priority 2021, published 2024).

Test system: HK-2 cells
Assay: Cellular uptake (fluorescence microscope, FACS, ICP-MS)
Format: cell-based, human
Conditions: 4 hours, non-ROS conditions
Description: For uptake studies, HK-2 cells (3×10^4 cells/well) were seeded onto Lab-Tek® Chamber Slides and cultured overnight. […] Untreated cells were used as a control. After incubation, the medium was aspirated, followed by performing DPBS wash and 4% paraformaldehyde (PFA) fixation. The cells were then counterstained with 4′,6-diamidino-2-phenylindole (DAPI). A fluorescence intensity of IR780 was analyzed by fluorescence microscope (Evos FL Auto 2, Thermo Fisher Scientific) to determine IR780 uptake by cells. To confirm the effect of ROS on intracellular distribution and release, ROS conditions were mimicked by treating the cells with 200 μM H2O2 for 2 hours or culturing the cells in a hypoxia chamber for 2 days before treatment. Cellular uptake was further quantified by flow cytometry. Briefly, 1×10^5 HK-2 cells/well were seeded in a 12-well plate and incubated overnight. The medium was aspirated, another sample was added and incubated for 4 hours. […] The cells were then re-suspended in FACS buffer containing 3% FBS, and fluorescence-activated cell sorting (FACS) was performed to determine the uptake capacity of each group. […] The cellular uptake of the final PTC-M nanocomposite was determined by ICP-MS analysis. […] Aqua regia (1 ml) was added to the final pellets for digestion, then the sample was diluted and analyzed for manganese content by ICP-MS. […]

Substance: IR780 iodide
- cellular uptake (IR780 fluorescence, microscope): higher uptake rate regardless of nanomicelle loading
